“And” between values parts separate entries of the source, which are not always exact repeats. Equal values may be shown once. “Also recorded” adds a separate entry of the source. Read-outs that look alike come from different tables or passages of the source.

This is an account of results in PMC8416643 (International Journal for Parasitology: Drugs and Drug …, 2021).

Data set [1] relates to N. caninum transgenic strain expressing β-galactosidase. As to the kind of experiment: In vitro proliferation of Nc-β-gal tachyzoites in HFF monolayers (β-galactosidase readout). The data set is classed as cell-based, Neospora caninum. Conditions: compound added concomitantly to infection, 72 h. The method, then:
In vitro efficacy assessments of ELQ-316, ELQ-334, ELQ-422, BKI-1748, and respective drug combinations were done using Nc-β-gal ([Barna et al., 2013]; [Schorer et al., 2012]). Briefly, HFF monolayers were cultured in 96-well plates and were infected with 10^3 Nc-β-gal tachyzoites in the presence of ELQ-316, ELQ-334, ELQ-422, and BKI-1748, as well as the combinations of BKI-1748 with each of the three ELQs. All drugs and combinations were prepared as serial dilutions of 20000, 2000, 200, 20, 2, 0.2, 0.02, 0.002 and 0.0002 nM in cell culture medium, respectively. The stock solutions of ELQs as well as the medium were heated up to 37 °C before use. After three days of culture (37 °C/5% CO2) in the presence of compounds, wells were washed with 200 μl PBS, and 90 μl of PBS containing 0.05% Triton X-100 were added into each well. After addition of 10 μl 5 mM chlorophenol red-β-D-galactopyranoside dissolved in PBS, the absorption shift was measured at a wavelength of 570 nm at various time points on an Enspire multilabel reader (Perkin Elmer, Waltham). The half-maximal effective concentrations (EC50 values) were calculated after the logit-log transformation of relative growth and subsequent regression analysis by use of the corresponding software tool contained in the Excel software package (Microsoft, Seattle, WA).

On the set-up of data set [2]: method as in Doggett et al., 2020. The following applies: ref Doggett et al., 2020; cited from earlier work.
Data set [3] concerns BALB/c mice. Put plainly: Assessment of potential interference in pregnancy in non-infected BALB/c mice. Type of data set: in vivo. The following applies: ELQs 10 mg/kg, BKI-1748 20 mg/kg; for Fertility: corn oil, gavage, days 9–13 of pregnancy, pregnant/total females. The method, then: Thirty-six BALB/c female and 18 male mice, six weeks of age were used. […] After mating, males were removed and female mice were randomly allocated to six experimental groups (six mice per group, two females per cage). […] The placebo group received 100 μl corn oil for five consecutive days. […] During the experimental period, mice were examined daily and weighed several times during pregnancy to determine the number of pregnant animals and to detect possible abortions (which would result in rapid weight loss). On day 18 post-mating, pregnant females were separated into individual cages, where they gave birth on days 20–22 post mating. Live and stillborn pups were counted, and dead pups removed. Data on the number of female mice that became pregnant, litter size (number of delivered pups per dam), stillborn mice (dead pups from birth until day two post-partum), post-natal mortality (dead pups from day three post-partum to the end of the experiment), and clinical signs of treated mice were recorded. Dams and live pups were monitored for two weeks after birth to rule out possible adverse effects due to treatments. At the end of the experiment, mice were euthanized in a euthanasia chamber using isoflurane and CO2.

Data set [4] can be described thus: BKI-1748 and ELQ-316 concentration in BALB/c mouse plasma (LC-MS/MS). The data set is classed as in vivo. The following applies: 1 h after final of 5 daily oral doses, ELQs 10 mg/kg, BKI-1748 20 mg/kg. How it is done: Thirty-six BALB/c female and 18 male mice, six weeks of age were used. Female mice were oestrus synchronized during three days by the Whitten effect ([Whitten, 1957]), and mated for three nights by housing one male with two females. After mating, males were removed and female mice were randomly allocated to six experimental groups (six mice per group, two females per cage). […] The placebo group received 100 μl corn oil for five consecutive days. […] Live and stillborn pups were counted, and dead pups removed. Data on the number of female mice that became pregnant, litter size (number of delivered pups per dam), stillborn mice (dead pups from birth until day two post-partum), post-natal mortality (dead pups from day three post-partum to the end of the experiment), and clinical signs of treated mice were recorded. Dams and live pups were monitored for two weeks after birth to rule out possible adverse effects due to treatments. […]
BKI-1748 and ELQ-316 concentrations in mouse plasma samples were determined as previously described ([Hulverson et al., 2019]; [Imhof et al., 2021]). Briefly, BKI-1748 and ELQ-316 were extracted from plasma using acetonitrile/0.1% formic acid with an internal standard and a standard curve was prepared for quantification. […]

Data set [5] relates to N. caninum NcSp-7 tachyzoites. Conditions: BKI-1748 20 mg/kg. The method, then:
Ninety BALB/c female mice and 45 male mice, six weeks of age were used in this experiment. Oestrus synchronization and mating was performed as described above. After mating, (day 0) female mice were randomly assigned to seven groups: ELQ-334 (n = 14), ELQ-422 (n = 14), BKI-1748 (n = 14), ELQ-334 + BKI-1748 (n = 14), ELQ-422 + BKI-1748 (n = 14), positive control (corn oil treatment and infection, n = 14), and negative control (corn oil treatment without infection, n = 6). NcSp-7 tachyzoites were transferred from HFF cells to BALB/c dermal fibroblasts and maintained at 37 °C and 5% CO2 three days prior to infection ([Imhof et al., 2021]). On day 7, tachyzoites were harvested and prepared for infection as previously described ([Arranz-Solís et al., 2015]). In brief, tachyzoite-infected fibroblasts were recovered from culture flasks when they were >90% of intracellular tachyzoites still located in parasitophorous vacuoles, and infected cells were repeatedly passed through a 25-gauge needle at 4 °C. […] A sublethal dose of 10^5 tachyzoites in 100 μl were administered to each mouse by subcutaneous injection. The negative control group was inoculated with 100 μl dermal fibroblasts. From two days post-infection (day 9), compounds were administered in 100 μl corn oil on days nine to 13 of pregnancy, calculated after the first day of mating, as follows: ELQ-334 was administered at 5 mg/kg, ELQ-422 at 7.5 mg/kg, and BKI-1748 was administered at 20 mg/kg. The combined treatment groups were: ELQ-334 at 5 mg/kg + BKI-1748 at 20 mg/kg, and ELQ-422 at 7.5 mg/kg + BKI-1748 at 20 mg/kg. The positive and negative controls received 100 μl corn oil for five consecutive days. On day 18, pregnant females were separated into individual cages, they gave birth on days 20–22, and were allowed to rear their pups for 28 days until day 48–50. Live and stillborn pups were counted, and dead pups were removed, and the non-pregnant mice were also monitored during the following 30 days until day 50. Dams and their offspring were evaluated for clinical signs of disease, and data on the number of dams, stillborn pups and those dying postnatally were monitored. All mice were euthanized four weeks post-partum as described above. Blood was collected by cardiac puncture, centrifuged, and serum was stored at −20 °C for subsequent analysis of IgG1 and IgG2a levels by ELISA. Brain was collected and stored at −20 °C prior to further processing.
For the quantification of the brain parasite load in all the mice, a real-time PCR method designed for quantification of N. caninum DNA was employed ([Aguado-Martínez et al., 2019]; [Müller et al., 2002]). DNA extraction and purification were done with the NucleoSpin DNA RapidLyse Kit (Macherey-Nagel, Oensingen, Switzerland) employing the standard protocols. DNA concentrations in all samples were determined using the QuantiFluor double-stranded DNA (dsDNA) system (Promega, Madison, WI, USA) according to the manufacturer's instructions and adjusted to 5 ng/μl with sterile DNase-free water. Quantitative real-time PCR was performed using the Light Cycler (Roche, Basel, Switzerland), and parasite loads calculated with a standard curve of N. caninum DNA samples of 10, 100, and 1000 tachyzoites included in each run.
Levels of IgG1 and IgG2a in N. caninum infected mice were assessed by ELISA as described previously ([Debache et al, 2008], [2009]). Briefly, 96-well plates were coated with 200 ng NcSp-7 soluble tachyzoite protein extract diluted in coating buffer (50 mM sodium bicarbonate; 50 mM sodium carbonate both dissolved in ultrapure water; pH 9.6) per well.

The test system of data set [6] is N. caninum NcSp-7 tachyzoites. Also on record: method as in Anghel et al., 2018. The following applies: ref Anghel et al., 2018, cited from earlier work.
For another data set, the system named is T. gondii. Set-up: method as in Doggett et al., 2020; Martynowicz et al., 2020. Conditions: persistently T. gondii infected mice, ref Doggett et al., 2020, Martynowicz et al.; cited from earlier work.
In data set [7] the test system is BALB/c mice. The following applies: non-infected pregnant BALB/c, five times 10 mg/kg/day, pups from four dams; ref Anghel et al., 2018; cited from earlier work.

For the molecule `COc1cc2[nH]c(C)c(-c3ccc(Oc4ccc(OC(F)(F)F)cc4)cc3)c(=O)c2cc1F` [ELQ-316], in data set [1], the half-maximal effective concentration (EC50) was determined as 1.55 nM. In data set [2], the Solubility entry is “low solubility; also recorded: poor solubility”.

On to `CCOC(=O)Oc1c(-c2ccc(Oc3ccc(OC(F)(F)F)cc3)cc2)c(C)nc2cc(OC)c(F)cc12` [ELQ-334], for which, in data set [1], the EC50 amounted to 54.2 nM. Also, the Fertility with BALB/c mice [3] was 2/6; in the data set on BALB/c mice [3] (listed as ELQ-344) it was “Two of six”. Further, the Neonatal mortality result was “two out of 11 and 2/11” in the data set with BALB/c mice [3] (gavage days 9–13, pups born dead or died within 2 days post-partum); “seven out of 44” in data set [6] (N. caninum infected pregnant mice, 10 mg/kg/day, pups from 10 dams); “one out of 27” with BALB/c mice [7]. Also, the Postnatal mortality in the data set with BALB/c mice [3] (gavage days 9–13, pups that died during days 3–14 post-partum) is 1/9. For the same molecule, the Pups per dam in the data set on BALB/c mice [3] (gavage days 9–13 of pregnancy) was 11/2. The “Plasma concentration ELQ-316” value is 11.16 µM and 15.81 µM and 13.24 µM in data set [4] (non-pregnant mouse); 12.71 µM and 18.58 µM in data set [4] (pregnant mouse). In addition, the “Pups: Litter size” value in data set [5] (infected dams, ELQ-334 5 mg/kg, ELQ-422 7.5 mg/kg, days 9–13) came out at 33. For the same molecule, the “Pups: N. caninum PCR positive” value in data set [5] (infected dams, ELQ-334 5 mg/kg, ELQ-422 7.5 mg/kg, brains from surviving pups) is 2/29. For the same molecule, the “Vertical transmission of N. caninum to the pups” value in data set [5] (infected dams, ELQ-334 5 mg/kg, ELQ-422 7.5 mg/kg, positive control 100%) stood at 10.3%. The “Inhibition of vertical transmission / pup infection” value in data set [5] (infected dams, ELQ-334 5 mg/kg/day) is more than 90%. The “Non-pregnant females: Clinical signs” value in data set [5] (infected, ELQ-334 5 mg/kg, ELQ-422 7.5 mg/kg, days 9–13) is 0/8. For the same molecule, the “Dams: Total no.” value in data set [5] (infected, ELQ-334 5 mg/kg, ELQ-422 7.5 mg/kg, days 9–13, pregnant/total females) is on record as 6/14. In addition, in data set [6] (10 mg/kg/day), the “Reduction of vertical transmission” value is reported as 50%. In addition, the “Cerebral parasite burden in non-pregnant mice compared to the placebo group” value in data set [6] (10 mg/kg) is given as “not notably reduced”. For the same molecule, in the data set with T. gondii, the “Tissue cysts in the brain” value is reported as “dramatic reduction of tissue cyst in the brain”.
